The values below come from patent US9713613B2, “Methods and compositions for the treatment of cancer and related hyperproliferative disorders” (priority 2007, dated 2017).

In general, inhibition refers to the relative decrease from the control value, in per cent.

Experiment [1] deals with endogenous SREBPs. The experiment is described as follows: SREBP activation assay (pSRE-Luc luciferase reporter) in CHO-K1 cells. The class given is cell-based, Chinese hamster. The conditions noted are these: Cricetulus griseus, CHO-K1; 5 μM in CHOK1 cells. The procedure:
To confirm that fatostatin impairs the function of SREBPs, the ability of endogenous SREBPs to activate transcription of an SREBP-responsive reporter gene was measured in CHO-K1 cells in the presence or absence of fatostatin (FIG. 18A).
Luciferase reporter assay. On day 0, CHO-K1 cells were plated out onto a 96-well plate in medium A (a 1:1 mixture of Ham's F-12 medium and Dulbecco's modified Eagle's medium, with 5% fetal bovine serum, 100 units/mL penicillin, and 100 μg/mL streptomycin sulfate). On day 2, the cells were transiently co-transfected with pSRE-Luc (an SRE-1-driven luciferase reporter construct) (Hua et al., 1995) and pAc-β-gal (β-gal reporter in which the expression of β-gal is controlled by an actin promoter), using Lipofectamine reagent (Invitrogen). After incubation for 5 h, the cells were washed with phosphate-buffered saline (PBS), and then incubated, in the absence or presence of fatostatin, in medium B (a 1:1 mixture of Ham's F-12 medium and Dulbecco's modified Eagle's medium, with 5% lipid-depleted serum, 100 units/mL penicillin, 100 μg/mL streptomycin sulfate, […], and 50 mM sodium mevalonate). After 20 h of incubation, the cells in each well were lysed, and aliquots were used to measure luciferase and β-galactosidase activities. Luciferase activity was normalized by the activity of β-galactosidase. For overexpression of the N-terminal matured form of SREBP-1c, pCMV-SREBP-1c(1-436) was co-transfected with pSRE-Luc and pAc-β-gal.
Standard SREBP activation assays were performed on the exemplary compounds identified in Table 4 as per the method for Fatostatin A in Example 1. The ability of endogenous SREBPs to activate transcription of an SREBP-responsive reporter gene was measured in the presence or absence of compounds 45-55 and 19 (FIG. 28), compounds 56-61 and 19 (FIG. 29) and compounds 62-66 (FIG. 30) at 5 μM in CHOK1 cells. […] The inhibitory concentrations of compounds 53 (FIG. 31) and compounds 58 and 61 (FIG. 32) were determined.
In general terms: A reporter such as luciferase makes a cellular process visible.

Experiment [2] relates to endogenous SREBPs. The experiment is described as follows: Luciferase reporter assay (pSRE-Luc, normalized by β-gal) in HEK293 cells. It counts as cell-based, human. Details: Luc/Gal: dose or concentration left out as unconfirmed. The procedure: On day 0, HEK293 cells were plated out in triplicate at a density of 5×10^3/well onto a 96-well plate in a Dulbecco's modified Eagle's medium with 10% fetal bovine serum, 100 units/mL penicillin, and 100 μg/mL streptomycin sulfate. On day 2, the cells were transiently co-transfected with the following plasmids by using Lipofectamine reagent (Invitrogen): 0.4 μg/well pSRE-Luc (an SRE-1-driven luciferase reporter construct; Hua et al., 1995 J Biol Chem 270, 29422-7), and 0.1 μg/well a b-gal reporter in which the expression of β-gal is controlled by an actin promoter in a final volume of […]. After incubation for 5 hrs at 37° C., the cells were washed with phosphate-buffered saline and then incubated in 100 μl of Dulbecco's modified Eagle's medium with 10% lipid-depleted serum, […] penicillin, and 100 μg/mL streptomycin sulfate in the absence or presence of fatostatin A. After 20 hrs of incubation, the cells in each well were lysed with 20 μL of 1× Reporter Lysis Buffer (Promega), and aliquots were used for measurement of luciferase (10 μL) and β-galactosidase (10 μL) activities. For luciferase assay, photon production was detected as counts per second in a Wallac 1420 ARVOsx multilabel counter (PerkinElmer). For β-galactosidase assays, hydrolysis of O-nitrophenyl-β-D-galactosidase was measured after incubation for 0.5 h at 37° C. by a microplate reader at the wave length of 405 nm (Tecan). The luciferase activity (counts per second) was normalized by the activity of β-galactosidase (OD units). For overexpression of the N-terminal matured form of SREBP-1c, pCMV-SREBP-1c (1-436) was co-transfected with pSRE-Luc. pSRE-Luc and pCMV-SREBP-1c (1-436) were provided by J. L. Goldstein (University of Texas Southwestern Medical Center). […]

Experiment [3] relates to 3T3-L1 cells. The experiment is described as follows: adipogenesis assay (formation of oil droplets). The class given is cell-based, mouse. The conditions noted are these: formation of oil droplets in cells. On the set-up: key: +: The analogues that completely inhibited the formation of oil droplets in cells were scored to be adipogenesis-inhibiting analogues. The procedure: The adipogenesis assay was performed as described (Choi et al., 2003).

Experiment [4] has as its system MOLT-4 cells. The experiment is described as follows: MOLT-4 cell growth, MTT assay. It counts as cell-based, human. The conditions noted are these: 48 hours. The procedure: 10,000 MOLT-4 cells (FIGS. 35A-35C) and 20,000 RPM18226 cells (FIGS. 35D-35F) were seeded onto 96 well plate in RPMI 1640 medium containing 5% FBS or fat-free charcoal treated serum (FF-FBS) for 24 hours at 37 C. MOLT-4 and RPM18226 cells were treated for additional 48 hours with different concentrations of compound 19 (None control without DMSO, Vehicle with DMSO, 1, 2, 5, 10 and 20 μM in DMSO; RPM18226 cells also were treated with 3 μM in DMSO). At the end of 48 hours cells were subjected to MTT assay to determine viability. Values are depicted as means±SD; *P<0.05.
20,000 MOLT-4 cells (FIGS. 36A-36C) and 20,000 RPM18226 cells (FIGS. 36D-36F) cells were seeded onto 96 well plates in RPMI 1640 Medium containing 5% Fetal bovine serum (FBS) or 5% fat free charcoal treated serum (FF-FBS) for 24 hours at 37 C. Cells then were treated for additional 48 hours with different concentrations of compound 17 (None control without DMSO, Vehicle with DMSO, 1, 2, 3, 5, 10 and 20 μM in DMSO). At the end of the 48 hours treatment cells were subjected to MTT assay to determine viability. Values are depicted as means±SD (n=3); **P<0.001; ***P<0.0001.
MOLT-4 cells were grown at two different conditions under 5% fetal bovine serum (FBS) and under 5% FBS fat free serum (charcoal treated serum). 10,000 Cells were seeded a 96 well plate for 24 hours before starting the treatment with different concentrations of compound 19. Compound 19 dissolved in DMSO was added to cells for 48 hours before determining cell growth using MTT assay. […] Compound 19 inhibited cell growth about 75-80% at 10 and 20 μM under both growth conditions.
MOLT-4 cells were grown at two different conditions under 5% fetal bovine serum (FBS) and under 5% FBS fat free serum (charcoal treated serum). 20,000 cells were seeded into a 96 well plate for 24 hours before starting the treatment with different concentrations of compound 17. Compound 17 dissolved in DMSO was added to cells for 48 hours before determining cell growth using MTT assay. […] Compound 17 inhibited cell growth about 85-100% at 5, 10 and 20 μM under both growth conditions. Under both 5% FBS and 5% FBS fat free sera there was a strong trend of inhibition starting at 1 μM (FIGS. 36B-36C).

For the compound `CS(=O)(=O)Nc1ccc(-c2csc([C@H]3CCCN3C(=O)OCc3ccccc3)n2)cc1` [Compound 53, benzyl (R)-2-(4-(4-(methylsulfonamido)phenyl)thiazol-2-yl)pyrrolidine-1-carboxylate], the inhibition at 5 µM in experiment [1] was ~30%.
On the same count and under the same terms, as for `Cc1ccc(-c2csc(/C(C#N)=C\Cc3ccc(S(=O)(=O)Nc4nccs4)cc3)n2)c(C)c1` [Compound 61, (Z)-4-(3-cyano-3-(4-(2,4-dimethylphenyl)thiazol-2-yl)allyl)-N-(thiazol-2-yl)benzenesulfonamide], the figure is ~25%.
`CCCc1cc(-c2nc(-c3ccc(NC(C)C)cc3)cs2)ccn1` [Compound 17, N-isopropyl-4-(2-(2-propylpyridin-4-yl)thiazol-4-yl)benzenamine] showed a Luc/Gal in experiment [2] (entries 1-18 (FIG. 15), none = 9.4426) of 4.7079. For the same compound, the Inhibition of adipogenesis entry in experiment [3] is given as “+”. The “inhibition under 5% FF FBS relative to 5% FBS” value in experiment [4] (3 μM) is reported as “about 2.5 times”. The “inhibition of cell growth” value in experiment [4] (5, 10 and 20 μM, both growth conditions) is reported as 85-100%.
Take `Cc1ccc(S(=O)(=O)Nc2ccc(C(=O)N3CCN(c4cc(Cl)ccc4C)CC3)cc2)cc1` [Compound 58, (4-(5-chloro-2-methylphenyl)piperazin-1-yl)(4-(tosylamino)phenyl)methanone]: the inhibition at 5 µM in experiment [1] was ~42%.
`CCCc1cc(-c2nc(-c3ccc(Br)cc3)c(C(=O)OC)s2)ccn1` [Compound 23, methyl 4-(4-bromophenyl)-2-(2-propylpyridin-4-yl)thiazole-5-carboxylate] came in with a Luc/Gal in experiment [2] (entries 1, 19-34 (FIG. 16), None = 15.0759) of 8.1137. In addition, the Inhibition of adipogenesis entry in experiment [3] is on record as “+”.
